From patent US11497751B2, “Modulators of Rho-associated protein kinase” (Redx Pharma PLC, priority 2018, dated 2022)

molecular target: T1, N-terminal 6His-tagged ROCK2 catalytic domain 11-552 (Homo sapiens, UniProt O75116); test: ROCK2 binding activity: ROCK2 inhibition, ADP-Glo Kinase Assay; type: biochemical; conditions: 1.25 nM ROCK2, 100 μM long S6 peptide, 20 μM ATP; 1 hour pre-incubation; read-out: ADP-Glo kinase activity assay ROCK2 Category
T1 construct: N-terminal 6His-tagged ROCK2 catalytic domain 11-552; 6His (N); purchased Dundee University, UK; host or cells: baculovirus expression system
Outline: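 1.25 nM baculovirus-expressed ROCK2 pre-incubated 1 h with compound (1% DMSO), then 100 μM long S6 peptide and 20 μM ATP added for 1 h; 50 mM HEPES pH 7.5, 10 mM Mg acetate, 1 mM DTT. ADP-Glo luminescence; IC50 from four-parameter logistic fit.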

T1 sequence (O75116 11-552): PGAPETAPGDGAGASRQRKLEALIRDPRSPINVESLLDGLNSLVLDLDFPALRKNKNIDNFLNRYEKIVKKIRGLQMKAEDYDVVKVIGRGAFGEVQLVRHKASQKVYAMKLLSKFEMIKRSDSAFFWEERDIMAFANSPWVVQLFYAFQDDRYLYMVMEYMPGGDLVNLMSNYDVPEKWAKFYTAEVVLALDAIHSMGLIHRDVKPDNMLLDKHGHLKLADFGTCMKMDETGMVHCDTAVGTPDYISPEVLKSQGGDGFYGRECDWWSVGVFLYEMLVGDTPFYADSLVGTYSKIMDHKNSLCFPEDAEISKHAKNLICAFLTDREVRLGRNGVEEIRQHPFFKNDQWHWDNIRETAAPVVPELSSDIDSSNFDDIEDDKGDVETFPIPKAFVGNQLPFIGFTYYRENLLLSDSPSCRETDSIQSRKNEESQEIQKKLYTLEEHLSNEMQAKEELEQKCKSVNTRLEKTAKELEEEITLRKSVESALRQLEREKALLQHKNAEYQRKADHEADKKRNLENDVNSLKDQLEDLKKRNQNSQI

COCCNC(=O)COc1ccc(-c2nnc(Nc3ccc4[nH]ncc4c3)[nH]2)cc1 [Example 155] and CC(=O)NCCOc1ccc(-c2nnc(Nc3ccc4[nH]ncc4c3)[nH]2)cc1 [Example 221] fall in the same range of IC50: 300 to 3000 nM for the first, 300 to 3000 nM for the second.

O=C(COc1ccc(-c2nnc(Nc3ccc4[nH]ncc4c3)[nH]2)cc1)NC1CC1 [Example 162] and O=C(COc1ccc(-c2nnc(Nc3ccc4[nH]ncc4c3)[nH]2)cc1)NC1CCCC1 [Example 160] cannot be ordered by IC50: < 300 nM for the first, < 300 nM for the second.

CC(C)NC(=O)COc1ccc(-c2nc(Nc3ccc4[nH]ncc4c3)n(C)n2)cc1C#N [Example 400] and CC(C)NC(=O)COc1ccc(-c2nc(Nc3ccc4[nH]ncc4c3)n(C)n2)c(C#N)c1 [Example 403] cannot be ordered by IC50: < 300 nM for the first, < 300 nM for the second.

First: Cn1nc(-c2cncc(N)c2)nc1Nc1ccc2[nH]ncc2c1Cl [Example 130]
Second: Cn1nc(-c2cccc(N)c2)nc1Nc1ccc2[nH]ncc2c1Cl [Example 120]
The IC50 of the first is lower: < 300 nM for the first, 3000 to 10000 nM for the second. The first is the more potent here.

CC(C)NC(=O)COc1ccc(-c2nc(Nc3ccc4[nH]ncc4c3Cl)n(C)n2)c(F)c1 [Example 355] and COc1cc(OCC(=O)NC(C)C)ccc1-c1nc(Nc2ccc3[nH]ncc3c2Cl)n(C)n1 [Example 353] cannot be ordered by IC50: < 300 nM for the first, < 300 nM for the second.

COc1cc(-c2nc(Nc3ccc4[nH]ncc4c3Cl)n(C)n2)ccc1C(=O)NC1CCOCC1 [Example 196] and COc1cc(-c2nc(Nc3ccc4[nH]ncc4c3Cl)n(C)n2)ccc1C(=O)NC1CN(C)C1 [Example 267] cannot be ordered by IC50: < 300 nM for the first, < 300 nM for the second.

Cn1nc(-c2ccc(C(=O)NC3CC(O)C3)cc2)nc1Nc1ccc2[nH]ncc2c1C1CC1 (centres unmarked) [Example 288] and Cn1nc(-c2ccc(C(=O)NC3CCOC3)cc2)nc1Nc1ccc2[nH]ncc2c1C1CC1 (centres unmarked) [Example 303] cannot be ordered by IC50: < 300 nM for the first, < 300 nM for the second.

Cc1cc(-c2nc(Nc3ccc4[nH]ncc4c3Cl)n(CC(C)C)n2)ccc1C(=O)NCC(F)(F)F [Example 435] and COCCn1nc(-c2ccc(C(=O)NCC(F)(F)F)c(C)c2)nc1Nc1ccc2[nH]ncc2c1C [Example 454] cannot be ordered by IC50: < 300 nM for the first, < 300 nM for the second.

COc1cc(-c2nc(Nc3ccc4[nH]ncc4c3Cl)n(C)n2)ccc1NCC(=O)NC(C)C [Example 87] and Cc1cc(-c2nc(Nc3ccc4[nH]ncc4c3Cl)n(C)n2)ccc1OCC(=O)NC(C)C [Example 350] cannot be ordered by IC50: < 300 nM for the first, < 300 nM for the second.

COc1cc(-c2nc(Nc3ccc4[nH]ncc4c3C)n(CC(C)C)n2)ccc1OCC(=O)NC(C)C [Example 452] and COc1cc(-c2nc(Nc3ccc4[nH]ncc4c3Cl)n(C)n2)ccc1OCC(=O)NCCN(C)C [Example 64] cannot be ordered by IC50: < 300 nM for the first, < 300 nM for the second.

Compared with Cn1nc(-c2ccc(C(=O)NCC(N)=O)cc2)nc1Nc1ccc2[nH]ncc2c1C1CC1 [Example 306], COC(=O)c1ccc(-c2nc(Nc3ccc4[nH]ncc4c3Cl)n(C)n2)cc1 [Example 56] is lower in IC50: 300 to 3000 nM for the first, < 300 nM for the second.

CCc1c(Nc2nc(-c3ccc(C(=O)NCC(F)(F)F)c(C)c3)nn2C)ccc2[nH]ncc12 [Example 424] and Cn1nc(-c2cccc(C(=O)NCC(F)(F)F)c2)nc1Nc1ccc2[nH]ncc2c1Cl [Example 268] cannot be ordered by IC50: < 300 nM for the first, < 300 nM for the second.

Compared with COc1cc(-c2nc(Nc3cc4cn[nH]c4cc3F)n(C)n2)ccc1C(=O)NC(C)(C)C [Example 432], COc1cc(-c2nc(Nc3ccc4[nH]ncc4c3Cl)n(C)n2)ccc1C(=O)NC(C)(C)C [Example 175] is lower in IC50: 3000 to 10000 nM for the first, < 300 nM for the second. The second is the more potent here.

First: Cn1nc(-c2ccc(S(N)(=O)=O)cc2)nc1Nc1ccc2[nH]ncc2c1Cl [Example 125]
Second: Cn1nc(-c2ccc(CO)cc2)nc1Nc1ccc2[nH]ncc2c1Cl [Example 88]
The IC50 of the first is lower: < 300 nM for the first, 300 to 3000 nM for the second. The first is the more potent here.

CC(C)NC(=O)COc1ccc(-c2nc(Nc3ccc4[nH]ncc4c3Cl)n(C)n2)cc1N1CCOCC1 [Example 52] and COc1cc(-c2nc(Nc3ccc4[nH]ncc4c3Cl)n(C)n2)ccc1C(=O)N1CCOCC1 [Example 172] fall in the same range of IC50: 300 to 3000 nM for the first, 300 to 3000 nM for the second.

First: O=C(COc1ccc(-c2nnc(Nc3ccc4[nH]ncc4c3)[nH]2)cc1)N[C@@H]1CCNC1 [Example 157]
Second: CC(C)NC(=O)C(C)Oc1ccc(-c2nnc(Nc3ccc4[nH]ncc4c3)[nH]2)cc1 (centres unmarked) [Example 18]
The IC50 of the first is lower: < 300 nM for the first, 300 to 3000 nM for the second.

COCCNC(=O)COc1ccc(-c2nc(Nc3ccc4[nH]ncc4c3Cl)n(C)n2)cc1OC [Example 242, 2-[4-[5-[(4-chloro-1H-indazol-5-yl)amino]-1-methyl-1,2,4-triazol-3-yl]-2-methoxy-phenoxy]-N-(2-methoxyethyl)acetamide] and COc1cc(-c2nc(Nc3ccc4[nH]ncc4c3Cl)n(C)n2)ccc1OCC(=O)NC1CCNC1 (centres unmarked) [Example 49] cannot be ordered by IC50: < 300 nM for the first, < 300 nM for the second.

Compared with CCc1cc(-c2nnc(Nc3ccc4[nH]ncc4c3)[nH]2)ccc1OCC(=O)NC(C)C [Example 42], CC(C)NC(=O)COc1ccc(-c2nnc(Nc3ccc4[nH]ncc4c3)[nH]2)c(F)c1 [Example 25] is higher in IC50: < 300 nM for the first, 300 to 3000 nM for the second.

First: Cn1nc(-c2cnn(CCN3CCOCC3)c2)nc1Nc1ccc2[nH]ncc2c1Cl [Example 117]
Second: COCCn1cc(-c2nc(Nc3ccc4[nH]ncc4c3Cl)n(C)n2)cn1 [Example 115]
The IC50 of the first is higher: 300 to 3000 nM for the first, < 300 nM for the second. The second is the more potent here.

CC(C)NC(=O)COc1ccc(-c2nc(Nc3ccc4[nH]ncc4c3)n(C)n2)c(C(F)(F)F)c1 [Example 402] and CC(C)NC(=O)COc1ccc(-c2nc(Nc3ccc4[nH]ncc4c3Cl)n(C)n2)c(C(F)(F)F)c1 [Example 475] cannot be ordered by IC50: < 300 nM for the first, < 300 nM for the second.

CC(C)NC(=O)COc1ccc(-c2nc(Nc3ccc4[nH]ncc4c3)n[nH]2)cc1F [Example 12, 2-[2-fluoro-4-[5-(1H-indazol-5-ylamino)-4H-1,2,4-triazol-3-yl]phenoxy]-N-isopropyl-acetamide] and COc1cc(-c2nc(Nc3ccc4[nH]ncc4c3)n(C)n2)ccc1C(=O)NC(C)C [Example 169] cannot be ordered by IC50: < 300 nM for the first, < 300 nM for the second.

First: Cn1nc(-c2ccc(C(=O)NC3(C)CC3)c(Cl)c2)nc1Nc1ccc2[nH]ncc2c1Cl [Example 255]
Second: COc1cc(-c2nc(Nc3ccc4[nH]ncc4c3Cl)n(C)n2)ccc1O [Example 101]
The IC50 of the first is higher: 300 to 3000 nM for the first, < 300 nM for the second. The second is the more potent here.

First: Cn1nc(-c2ccc3c(c2)CCNC3)nc1Nc1ccc2[nH]ncc2c1Cl [Example 237, 4-Chloro-N-[2-methyl-5-(1,2,3,4-tetrahydroisoquinolin-6-yl)-1,2,4-triazol-3-yl]-1H-indazol-5-amine]
Second: Cc1ccc(-c2nc(Nc3ccc4[nH]ncc4c3Cl)n(C)n2)cn1 [Example 109]
The IC50 of the first is lower: 300 to 3000 nM for the first, 3000 to 10000 nM for the second. The first is the more potent here.

First: COc1cc(-c2nc(Nc3ccc4[nH]ncc4c3C3CC3)n(C)n2)cnc1C(=O)NC1CC1 [Example 379]
Second: CCc1c(Nc2nc(-c3ccc(C(=O)NC4CC4)c(OC)c3)nn2C)ccc2[nH]ncc12 [Example 252, N-cyclopropyl-4-[5-[(4-ethyl-1H-indazol-5-yl)amino]-1-methyl-1,2,4-triazol-3-yl]-2-methoxy-benzamide]
The IC50 of the first is higher: 300 to 3000 nM for the first, < 300 nM for the second.

Cn1nc(-c2ccc3c(c2)COC3=O)nc1Nc1ccc2[nH]ncc2c1C1CC1 [Example 381] and Cn1nc(-c2cccc(C(=O)NC3CC3)c2)nc1Nc1ccc2[nH]ncc2c1Cl [Example 269] cannot be ordered by IC50: < 300 nM for the first, < 300 nM for the second.

Compared with CCNC(=O)c1ccc(-c2nc(Nc3ccc4[nH]ncc4c3)n(C)n2)c(Cl)c1 [Example 327], CCNC(=O)c1ccc(-c2nc(Nc3ccc4[nH]ncc4c3)n(C)n2)c(C(F)(F)F)c1 [Example 408] is higher in IC50: < 300 nM for the first, 300 to 3000 nM for the second. The first is the more potent here.

Compared with CC(=O)NCc1ccc(-c2nc(Nc3ccc4[nH]ncc4c3Cl)n(C)n2)cc1 [Example 73], COc1ccc(-c2nnc(Nc3ccc4[nH]nc(C)c4c3)[nH]2)cc1 [Example 5] is higher in IC50: 300 to 3000 nM for the first, 3000 to 10000 nM for the second.

tested on: T cells; test: not given; conditions: oral administration of KD025, healthy human subjects, ex-vivo stimulation of T-cells; cited from earlier work

For CC(C)NC(=O)COc1cccc(-c2nc(Nc3ccc4[nH]ncc4c3)c3ccccc3n2)c1 [KD025], the “reduction of the ability of T cells to secrete IL-17” value is listed as 60%.

For CC(C)NC(=O)COc1cccc(-c2nc(Nc3ccc4[nH]ncc4c3)c3ccccc3n2)c1 [KD025], the “reduction of the ability of T cells to secrete IL-21” value is listed as 90%.
